Laboratory results as given in PubChem BioAssay (NCI).
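Dose response: 5 concentrations. Exposure: 48 h. Format: 96-well plates. Endpoint: linear interpolation; highest concentration if not reached. At the GI50, growth is halved. TGI is the concentration that stops growth completely.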

Tests used:
Experiment in all cases: NCI anticancer screen, dose series, 48 h
LXFL 529 NSCLC = tested on: LXFL 529 NSCLC
DLD-1 colon = tested on: DLD-1 colon
KM20L2 colon = tested on: KM20L2 colon
CAKI-1 renal = tested on: CAKI-1 renal
SNB-78 CNS = tested on: SNB-78 CNS
HOP-18 NSCLC = tested on: HOP-18 NSCLC
HOP-62 NSCLC = tested on: HOP-62 NSCLC
XF 498 CNS = tested on: XF 498 CNS
DMS 273 small cell lung = tested on: DMS 273 small cell lung
M19-MEL melanoma = tested on: M19-MEL melanoma
DMS 114 small cell lung = tested on: DMS 114 small cell lung
RXF-631 renal = tested on: RXF-631 renal
NCI/ADR-RES ovarian = tested on: NCI/ADR-RES ovarian

SMILES	GI50 (LXFL 529 NSCLC) [µM]	TGI (LXFL 529 NSCLC) [µM]	TGI (DLD-1 colon) [µM]	TGI (KM20L2 colon) [µM]	TGI (CAKI-1 renal) [µM]	TGI (SNB-78 CNS) [µM]	TGI (HOP-18 NSCLC) [µM]	TGI (HOP-62 NSCLC) [µM]	TGI (XF 498 CNS) [µM]	TGI (DMS 273 small cell lung) [µM]	TGI (M19-MEL melanoma) [µM]	TGI (DMS 114 small cell lung) [µM]	TGI (RXF-631 renal) [µM]	TGI (NCI/ADR-RES ovarian) [µM]
N#[O+].O=S(=O)([O-])[O-].[NH2-].[NH2-].[NH2-].[NH2-].[NH2-].[Ru+5]	> 100	> 100	> 100	> 100	> 100	> 100	–	–	–	–	–	–	–	–
O=C1c2ccccc2S[C@@H](O)[C@@H]2CCCN12	–	> 100	> 100	> 100	–	> 100	> 100	> 100	> 100	> 100	> 100	> 100	–	–
CC(=O)OC1CC2OC(Cc3ccccc32)O1 (configuration not stated)	–	> 100	> 100	> 100	–	> 100	94.9	> 100	> 100	> 100	> 100	> 100	–	–
COc1cc(C2c3cc4c(cc3[C@H](OCCN(C)C)[C@@H]3COC(=O)C23)OCO4)cc(OC)c1O (some centres not stated)	–	28	3.96	2.98	1.07	> 93.2	> 100	0.366	1.88	1.31	4.79	–	1.07	15.1
CCOC(=O)CC(NC(=O)c1nc[nH]c1[N+](=O)[O-])C(=O)OCC (configuration not stated)	–	> 100	> 100	–	> 100	–	–	> 100	–	> 100	> 100	> 100	–	–
COc1cc2c(c(OC)c1OC)-c1ccc(SC)c(=O)cc1C(CC(=O)Oc1ccc([N+](=O)[O-])cc1)C2 (configuration not stated)	–	> 34.6	8.69	0.465	> 62.8	41	> 48.9	> 100	4.73	> 36.9	36.9	0.677	0.052	–
CC1=CC(=O)NP(=O)(Oc2ccc(C)cc2)N1 (configuration not stated)	–	> 100	> 100	> 100	> 100	> 100	> 100	> 100	> 100	> 100	> 100	> 100	> 100	–
CN(C)/N=C(\CCN1CCCC1)CC(c1ccccc1)c1c(O)c2ccccc2oc1=O (configuration not stated)	–	> 100	> 100	> 100	> 100	–	–	> 100	> 100	–	> 100	–	–	–
Cc1cc(=O)[nH]c(NNC(C#N)c2ccc(O)cc2)n1 (configuration not stated)	–	> 100	> 100	> 100	> 100	> 100	> 100	> 100	–	> 100	> 100	> 100	–	–
CCCN(CCCCC(NC(C)=O)C(=O)NCc1ccccc1)C(=O)N(CCCl)N=O (configuration not stated)	–	> 100	> 100	> 100	> 100	> 100	> 100	78.3	> 100	> 100	> 100	> 100	> 100	> 100
O=C1CCC(c2ccccc2)C(O)(C(=O)O)C1 (configuration not stated)	–	> 100	> 100	> 100	> 100	> 100	> 100	> 100	–	> 100	> 100	–	> 100	–
O=C1NC(Nc2cccc(Cl)c2)=N/C1=C\c1ccc(Cl)c(Cl)c1	–	–	–	–	18.4	–	–	23.4	–	–	–	–	–	16.2
COc1ccc(-c2c(C(C)=O)c(-c3ccccc3)n(C3OC(COC(C)=O)C(OC(C)=O)C(OC(C)=O)C3OC(C)=O)c(=S)c2C#N)cc1 (configuration not stated)	–	–	–	–	> 100	–	–	> 100	–	–	–	–	–	> 100
CC(C)NC(=O)OCc1c(COC(=O)NC(C)C)c(-c2ccc[n+](COC(=O)CC(C)(C)C)c2)n2c1CCC2	–	–	–	–	> 100	–	–	> 100	–	–	–	–	–	> 100
CC(=O)c1cccc2c1CC1(C2)Cc2ccc3c(c2C1=O)CCC3 (configuration not stated)	–	–	–	–	> 100	–	–	> 100	–	–	–	–	–	57.5
COC12C=CC(CC1)C(C)(C)C2=O (configuration not stated)	–	–	–	–	> 100	–	–	> 100	–	–	–	–	–	> 100
CC(=O)NNc1nc(C)c(C(/C=C/c2cccc([N+](=O)[O-])c2)=N/NC(=S)NN)s1	–	–	–	–	> 100	–	–	> 100	–	–	–	–	–	> 100
